Reference: ChEMBL document CHEMBL2074344, “Active efflux of the 5-HT(1A) receptor agonist flesinoxan via P-glycoprotein at the blood-brain barrier” (Eur J Pharm Sci, 2001)

Key:
[1] = target: ATP-dependent translocase ABCB1 (Homo sapiens, UniProt P08183); assay: TP_TRANSPORTER: transepithelial transport (basal to apical) in MDR1-expressing LLC-PK1 cells; assay type: functional, cell-based; settings: pig
[2] = target: ATP-dependent translocase ABCB1 (Mus musculus, UniProt P21447); assay: TP_TRANSPORTER: increase in brain concentration in mdr1a(-/-) mouse; assay type: functional, organism-based; settings: in vivo
Sequence of ATP-dependent translocase ABCB1 (Mus musculus, UniProt P21447) (P21447 whole entry): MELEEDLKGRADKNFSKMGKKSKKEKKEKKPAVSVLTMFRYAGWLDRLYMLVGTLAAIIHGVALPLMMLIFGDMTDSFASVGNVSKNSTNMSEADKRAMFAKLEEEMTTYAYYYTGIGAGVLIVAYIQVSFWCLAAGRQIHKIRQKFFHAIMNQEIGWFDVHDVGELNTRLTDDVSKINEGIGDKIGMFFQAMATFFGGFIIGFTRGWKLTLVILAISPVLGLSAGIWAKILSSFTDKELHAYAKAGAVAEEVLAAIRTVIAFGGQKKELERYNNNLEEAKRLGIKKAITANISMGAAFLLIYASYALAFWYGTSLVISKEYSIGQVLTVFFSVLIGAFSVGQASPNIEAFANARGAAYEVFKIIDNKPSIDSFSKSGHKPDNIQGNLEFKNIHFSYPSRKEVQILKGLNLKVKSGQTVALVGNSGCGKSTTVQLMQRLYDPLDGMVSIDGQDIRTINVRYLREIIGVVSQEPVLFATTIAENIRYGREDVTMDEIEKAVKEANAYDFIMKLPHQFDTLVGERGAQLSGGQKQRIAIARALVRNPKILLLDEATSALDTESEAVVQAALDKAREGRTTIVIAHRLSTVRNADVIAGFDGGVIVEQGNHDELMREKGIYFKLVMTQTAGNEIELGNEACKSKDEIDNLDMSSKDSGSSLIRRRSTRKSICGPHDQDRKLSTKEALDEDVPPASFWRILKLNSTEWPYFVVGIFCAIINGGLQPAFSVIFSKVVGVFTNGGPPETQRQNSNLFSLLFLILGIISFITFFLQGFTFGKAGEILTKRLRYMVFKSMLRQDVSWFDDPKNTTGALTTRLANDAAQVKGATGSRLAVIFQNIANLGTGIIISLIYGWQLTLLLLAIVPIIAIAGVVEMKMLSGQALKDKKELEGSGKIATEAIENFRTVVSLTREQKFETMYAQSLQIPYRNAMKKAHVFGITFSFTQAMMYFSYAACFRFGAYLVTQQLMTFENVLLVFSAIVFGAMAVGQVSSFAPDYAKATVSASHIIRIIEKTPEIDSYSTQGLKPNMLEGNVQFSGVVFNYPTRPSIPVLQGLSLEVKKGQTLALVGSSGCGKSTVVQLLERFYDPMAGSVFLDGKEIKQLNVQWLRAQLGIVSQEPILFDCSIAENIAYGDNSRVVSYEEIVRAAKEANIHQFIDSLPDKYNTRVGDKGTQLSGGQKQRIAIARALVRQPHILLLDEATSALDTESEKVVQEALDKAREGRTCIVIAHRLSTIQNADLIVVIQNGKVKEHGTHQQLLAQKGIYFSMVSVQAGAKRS

Sequence of ATP-dependent translocase ABCB1 (Homo sapiens, UniProt P08183) (P08183 whole entry): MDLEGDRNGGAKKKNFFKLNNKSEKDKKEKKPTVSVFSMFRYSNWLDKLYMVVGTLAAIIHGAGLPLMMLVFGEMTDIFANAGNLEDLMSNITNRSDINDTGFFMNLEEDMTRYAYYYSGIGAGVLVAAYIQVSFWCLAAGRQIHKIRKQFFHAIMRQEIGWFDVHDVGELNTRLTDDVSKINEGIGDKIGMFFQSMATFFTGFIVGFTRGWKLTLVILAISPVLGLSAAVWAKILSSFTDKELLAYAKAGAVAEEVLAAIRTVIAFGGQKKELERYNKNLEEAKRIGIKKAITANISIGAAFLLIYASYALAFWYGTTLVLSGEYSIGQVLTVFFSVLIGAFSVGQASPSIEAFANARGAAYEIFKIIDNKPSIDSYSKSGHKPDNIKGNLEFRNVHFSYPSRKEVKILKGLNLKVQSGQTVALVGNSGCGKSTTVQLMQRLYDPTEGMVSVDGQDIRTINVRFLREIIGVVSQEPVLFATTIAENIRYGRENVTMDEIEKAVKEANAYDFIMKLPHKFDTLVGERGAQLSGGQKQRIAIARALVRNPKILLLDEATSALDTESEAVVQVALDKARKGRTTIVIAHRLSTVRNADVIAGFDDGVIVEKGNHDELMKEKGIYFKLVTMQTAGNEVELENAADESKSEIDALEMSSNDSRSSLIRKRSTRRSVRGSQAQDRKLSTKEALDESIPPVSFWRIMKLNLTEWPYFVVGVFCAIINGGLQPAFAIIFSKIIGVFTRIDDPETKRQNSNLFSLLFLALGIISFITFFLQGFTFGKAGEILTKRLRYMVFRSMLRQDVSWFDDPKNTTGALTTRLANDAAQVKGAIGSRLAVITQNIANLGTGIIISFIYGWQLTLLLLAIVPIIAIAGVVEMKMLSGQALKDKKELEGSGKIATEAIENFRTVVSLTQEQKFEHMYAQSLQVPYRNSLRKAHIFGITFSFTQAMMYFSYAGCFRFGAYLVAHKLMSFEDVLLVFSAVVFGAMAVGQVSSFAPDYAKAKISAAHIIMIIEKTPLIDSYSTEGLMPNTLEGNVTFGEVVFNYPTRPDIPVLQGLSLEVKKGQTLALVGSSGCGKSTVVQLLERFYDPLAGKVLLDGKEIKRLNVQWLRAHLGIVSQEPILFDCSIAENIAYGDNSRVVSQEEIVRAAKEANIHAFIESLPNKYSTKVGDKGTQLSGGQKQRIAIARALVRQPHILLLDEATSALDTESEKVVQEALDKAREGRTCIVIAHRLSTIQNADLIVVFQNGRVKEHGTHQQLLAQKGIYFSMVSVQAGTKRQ

Activity [1]: substrate [+]
Activity [2]: substrate [+]
Compound: O=C(NCCN1CCN(c2cccc3c2OC[C@H](CO)O3)CC1)c1ccc(F)cc1 [FLESINOXAN]
